# pIC50: −log10 of the molar value.
# Assays:
# [1] = tested on: hippocampal astrocytes of APP/PS1-21 and WT mice; assay: Chronic intraperitoneal treatment: astrocyte calcium imaging (Fluo-4) in hippocampal slices; format: in vivo, mouse
# Method: The used model is a transgenic murine model obtained on a C57BL/6J genetic background which co-expresses the mutated human form of the amyloid precursor protein (mutated APP KM670/671NL) and of presenilin 1 (mutated PS1 L166P) under the control of the neural promoter Thy1. The presence of these two mutations allows increased production of the Aβ peptide from the 14th postnatal day. This leads to cerebral amyloidosis with the appearance of the first senile plaques around 8 postnatal weeks. This amyloid pathology is accompanied by inflammatory gliosis (microgliosis and astrogliosis detectable from 4 months), dendritic spine dystrophy and tau hyperphosphorylation (around 8 months). Cognitive behavioral disorders, and in particular of learning and spatial memory, are developed in around 6 to 8 months. This model was set-up and described by Rebecca Radde in 2006 (Radde et al., EMBO reports, 2006) and is widely used by the scientific community. This model is available in the animal facility of the Institut des Neurosciences de Grenoble and has been bred by the inventors since 2014.
# (§1) This solution is then diluted to 1 μg/μl in an isotonic solution containing 1% Pluronic F-127 and 0.9% NaCl. The animals are injected daily intraperitoneally at a dose of 5 mg/kg of body mass. Sterile 0.5 ml BD MicroFine syringes with no dead volume, equipped with a 30G (0.3 mm) needle are used for the injections.
# The carrier (10% DMSO, 1% Pluronic F-127, 0.9% NaCl) is used as a control and is also injected daily, according to the same procedure, into the WT and APP/PS1 control animals (carrier groups).
# (§2) The injection is started from the 14th postnatal day (appearance of the expression of the Thy1gene promoter in the hippocampus, triggering the overexpression of Aβ in the APP/PS1-21 murine model)
# Coronal sections of the hippocampus (thickness 300 μm) were prepared from APP/PS1-21 transgenic mice (1 month and 3 months old) or from WT mice from the same litter. The mice were sacrificed by decerebration and decapitation. The brain was quickly removed and sectioned in ice-cold ACSF containing (in mM) : 2.5 KCl, 7 MgCl2, 0.5 CaCl2, 1.2 NaHPO4, 25 NaHCO3, 11D-glucose and 234 sucrose bubbled with 95% of O2 and 5% of CO2 with a VT1200S vibratome (Leica, Germany). The sections containing the hippocampus were placed in ACSF containing (in mM) : 126 NaCl, 2.5 KCl, 1.2 MgCl2, 2.5 CaCl2, 1.2 NaH2PO4 bubbled with 95% of O2 and 5% of CO2 and supplemented with 1 mM of sodium pyruvate at room temperature for a recovery period.
# 300 μm coronal sections were transferred to a chamber allowing constant perfusion with ACSF at room temperature, bubbling with 95% of O2 and 5% of CO2 on the upright microscope tray (Eclipse E600 FN, Nikon, France) equipped with a 60× (NA 1.0) water immersion objective and infrared interference contrast optical systems with a CCD camera (Optronis VX45, Germany). 8-11 MSΩ glass pipettes (Harvard Apparatus) were filled with an intracellular solution containing (in mM): 105 K-gluconate, 30 KCl, 10 phosphocreatine, 10 HEPES, 4 ATP-Mg, 0.3 GTP-Tris, 0.2 Fluo-4-pentapotassium salt (Life Technologies), adjusted to pH 7.2 with KOH. The signals were amplified by Axopatch 200B, sampled by a Digidata 1440A interface and recorded by the pClamp8 software (Molecular Devices, USA). Astrocytes were identified on the basis of their morphology, their location in the stratum radiatum and a negative resting potential (between −70 and −80 mV). The membrane potential was maintained at −80 mV. The input resistance was calculated by measuring the current in response to a 10 mV pulse of 80 ms duration near the end of the voltage command.
# [2] = tested on: dendritic spines of CA1 pyramidal neurons, Thy1-eYFP-H-APP/PS1-21 mice; assay: Chronic intraperitoneal treatment: analysis of dendritic spines; format: in vivo, mouse; details: 3 months, treated from 14th postnatal day
# Method: In some experiments, APP/PS1-21 mice were crossed with the Thy1-eYFP-H murine transgenic line which expresses the fluorescent protein eYFP in specific neuron subpopulations. This solution is then diluted to 1 μg/μl in an isotonic solution containing 1% Pluronic F-127 and 0.9% NaCl. The animals are injected daily intraperitoneally at a dose of 5 mg/kg of body mass. Sterile 0.5 ml BD MicroFine syringes with no dead volume, equipped with a 30G (0.3 mm) needle are used for the injections. The injection is started from the 14th postnatal day (appearance of the expression of the Thy1gene promoter in the hippocampus, triggering the overexpression of Aβ in the APP/PS1-21 murine model) Hippocampal sections from Thy1-eYFP-H-APP/PS1-21 mice were imaged using a Zeiss Airyscan module with a 100× (NA 1.4) Plan Apochromat oil immersion objective. Confocal image stacks (increment of 200 nm) were performed with a voxel size of 0.041×0.041×0.2 μm. The 3D analysis of the spine density, of the spine volume and the spine classification was performed using NeuronStudio software (Icahn School of Medicine at Mount Sinai, USA). The length of individual dendrites was automatically measured as well as the number and volume of associated dendritic spines which were classified as […], thin or mushroom using automated 3D shape classification. For each condition, 10 dendrites were imaged and 700 dendritic spines were analyzed.
# [3] = tested on: WT control animals; assay: Chronic intraperitoneal treatment: overall effect on WT control animals; format: in vivo; details: daily injection from the 14th to the 90th postnatal day
# Method: as §1, §2
# [4] = target: human forms of TRPA1 (Homo sapiens, UniProt O75762); details: McNamara et al. 2007, read-out: CI50 (the source's name); cited from earlier work
# human forms of TRPA1, sequence (O75762 whole entry): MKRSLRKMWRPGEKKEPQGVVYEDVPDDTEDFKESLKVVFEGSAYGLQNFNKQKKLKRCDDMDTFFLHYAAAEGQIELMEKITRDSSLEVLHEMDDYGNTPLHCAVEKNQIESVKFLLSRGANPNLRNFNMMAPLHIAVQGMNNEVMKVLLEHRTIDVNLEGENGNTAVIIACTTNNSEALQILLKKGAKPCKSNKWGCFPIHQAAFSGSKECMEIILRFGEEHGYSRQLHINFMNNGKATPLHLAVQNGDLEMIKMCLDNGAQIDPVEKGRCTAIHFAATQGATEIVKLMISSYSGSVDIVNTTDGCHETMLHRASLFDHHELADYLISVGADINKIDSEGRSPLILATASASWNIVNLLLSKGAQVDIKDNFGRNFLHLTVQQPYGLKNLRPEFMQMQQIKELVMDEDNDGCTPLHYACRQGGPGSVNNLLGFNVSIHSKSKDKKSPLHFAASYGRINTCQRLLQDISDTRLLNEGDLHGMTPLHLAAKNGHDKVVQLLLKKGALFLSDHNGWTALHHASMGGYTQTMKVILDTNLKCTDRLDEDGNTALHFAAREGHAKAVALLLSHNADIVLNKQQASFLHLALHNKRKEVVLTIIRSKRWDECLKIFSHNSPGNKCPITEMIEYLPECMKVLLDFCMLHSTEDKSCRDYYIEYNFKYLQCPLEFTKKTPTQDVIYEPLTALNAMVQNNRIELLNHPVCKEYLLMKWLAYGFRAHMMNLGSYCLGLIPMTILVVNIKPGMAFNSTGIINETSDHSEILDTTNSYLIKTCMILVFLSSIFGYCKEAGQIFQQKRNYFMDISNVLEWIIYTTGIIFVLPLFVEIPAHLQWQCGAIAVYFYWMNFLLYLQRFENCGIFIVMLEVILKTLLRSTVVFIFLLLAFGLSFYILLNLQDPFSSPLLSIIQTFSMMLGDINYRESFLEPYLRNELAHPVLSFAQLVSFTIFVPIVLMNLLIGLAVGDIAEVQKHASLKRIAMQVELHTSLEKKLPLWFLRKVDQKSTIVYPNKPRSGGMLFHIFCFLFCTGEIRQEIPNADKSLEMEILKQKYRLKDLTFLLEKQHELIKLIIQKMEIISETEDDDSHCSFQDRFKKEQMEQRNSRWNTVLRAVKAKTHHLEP
# [5] = tested on: rodent forms of TRPA1; details: McNamara et al. 2007, Eid et al. 2008, read-out: CI50 (the source's name); cited from earlier work
# [6] = tested on: models of neuropathic and inflammatory pain; details: rats, oral administration 100 mg/kg; Eid et al. 2008; cited from earlier work
# [7] = APP/PS1-21 mice, 1-month old, 5 mg/kg i.p. daily from 14th postnatal day
# [8] = APP/PS1-21 mice, 3 months, chronic treatment 5 mg/kg i.p.
# [9] = WT control mice, 1-month old, 5 mg/kg i.p. daily from 14th postnatal day
# [10] = WT mice, 3 months, chronic treatment 5 mg/kg i.p.
smiles,measurement,setting,value
"CC(C)c1ccc(NC(=O)Cn2cnc3c2c(=O)n(C)c(=O)n3C)cc1 [HC030031, 2-(1,3-Dimethyl-2,6-dioxo-1,2,3,6-tetrahydro-7H-purin-7-yl)-N-(4-isopropylphenyl)acetamide]",calcium event frequency,[1]; [7],0.48±0.02 calcium event/minute
same,proportion of active microdomains,[1]; [7],56.1±3.9%
same,frequency of calcium events within microdomains,[1]; [8],0.50±0.06 event/minute
same,proportion of active microdomains,[1]; [8],49.4±6.4%
same,frequency of calcium events within the microdomains,[1]; [9],0.51±0.02 calcium event/min
same,proportion of active microdomains,[1]; [9],53.0±2.7%
same,frequency of calcium events within microdomains,[1]; [10],0.62±0.04 calcium event/minute
same,proportion of active microdomains,[1]; [10],60.2±3.8%
same,dendritic spine density,[2],1.32±0.08 spine/μm
same,mushroom-shaped spines,[2],64.0±1.7%
same,thin spines,[2],26.7±2.0%
same,effect at the functional level and at the structural level,[3],no effect
same,pIC50,[4],~5.21
same,pIC50,[5],5.12
same,analgesic effect,[6],significant analgesic effect

# — patent publication US20230372350A1, “ASTROCYTIC TRPA1 CHANNEL INHIBITION AS A NOVEL NEUROPROTECTIVE THERAPEUTIC TARGET IN THE PRODROMAL PHASES OF ALZHEIMER'S DISEASE” (priority 2020, published 2023)
